Reference: PMC9944867, “Mechanistic in vitro studies indicate that the clinical drug–drug interactions between protease inhibitors and rosuvastatin are driven by inhibition of intestinal BCRP and hepatic OATP1B1 with minimal contribution from OATP1B3, NTCP and OAT3” (Pharmacology Research & Perspectives, 2023)
“And” between values parts separate entries of the source, which are not always exact repeats. Identical values can stand only once. Like-named read-outs stand apart in the source and are kept apart here.

Experiments:
human NTCP (SLC10A1) = biological target: T1, human NTCP (SLC10A1) (Homo sapiens, UniProt Q14973); assay: NTCP inhibition in transporter-expressing HEK293 cells, [3H]-taurocholic acid uptake (IC50 determination); type: cell-based; conditions: for IC50: NTCP-mediated transport of [3H]-taurocholic acid (1 μM), HEK293
T1 construct: host or cells: HEK293 TransportoCells
T1 sequence (Q14973 1-349): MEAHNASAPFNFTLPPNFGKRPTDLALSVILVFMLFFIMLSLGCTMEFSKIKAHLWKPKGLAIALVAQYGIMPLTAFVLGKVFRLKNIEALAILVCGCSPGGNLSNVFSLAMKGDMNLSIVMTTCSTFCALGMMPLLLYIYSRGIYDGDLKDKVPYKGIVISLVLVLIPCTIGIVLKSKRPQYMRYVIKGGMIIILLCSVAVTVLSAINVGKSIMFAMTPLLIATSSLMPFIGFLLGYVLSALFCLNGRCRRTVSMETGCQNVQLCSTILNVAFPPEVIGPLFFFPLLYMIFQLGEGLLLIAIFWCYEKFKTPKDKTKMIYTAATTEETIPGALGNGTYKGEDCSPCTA

[1] = cited from earlier work; for Cmax: read-out: [Cmax] mean steady-state maximum plasma concentration, total drug; for fu fraction unbound: in plasma, ref drug label accessed via Drugs@FDA database
human OAT3 (SLC22A8) = biological target: T2, human OAT3 (SLC22A8) (Homo sapiens, UniProt Q8TCC7); assay: OAT3 single concentration inhibition screen in HEK293 cells; type: cell-based; conditions: ≥10x unbound [Cmax]: atazanavir 15 μM, darunavir 10 μM, lopinavir 3 μM, ritonavir 0.1 μM; probe 1 μM
T2 construct: host or cells: HEK293 TransportoCells
T2 sequence (Q8TCC7 1-542): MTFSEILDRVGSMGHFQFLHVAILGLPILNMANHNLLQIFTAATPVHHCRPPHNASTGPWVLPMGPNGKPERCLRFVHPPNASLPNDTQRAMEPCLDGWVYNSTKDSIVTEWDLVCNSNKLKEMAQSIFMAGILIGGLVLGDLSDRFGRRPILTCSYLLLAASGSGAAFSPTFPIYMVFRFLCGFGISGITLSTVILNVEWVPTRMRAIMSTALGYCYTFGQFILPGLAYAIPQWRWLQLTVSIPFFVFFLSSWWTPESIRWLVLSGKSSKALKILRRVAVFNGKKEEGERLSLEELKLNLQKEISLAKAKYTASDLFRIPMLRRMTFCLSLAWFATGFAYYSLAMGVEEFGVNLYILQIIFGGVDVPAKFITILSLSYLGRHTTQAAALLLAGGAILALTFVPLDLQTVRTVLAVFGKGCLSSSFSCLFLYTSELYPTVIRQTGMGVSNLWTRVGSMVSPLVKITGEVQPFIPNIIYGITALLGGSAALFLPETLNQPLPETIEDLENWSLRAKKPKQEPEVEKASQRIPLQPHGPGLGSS

human OATP1B3 (SLCO1B3) = biological target: T3, human OATP1B3 (SLCO1B3) (Homo sapiens, UniProt Q9NPD5); assay: OATP1B3 inhibition in transporter-expressing HEK293 cells, [3H]-estradiol 17β-D-glucuronide uptake (IC50 determination); conditions: for IC50: OATP1B3-mediated transport of [3H]-estradiol 17β-D-glucuronide (0.02 μM), HEK293
T3 sequence (Q9NPD5 1-702): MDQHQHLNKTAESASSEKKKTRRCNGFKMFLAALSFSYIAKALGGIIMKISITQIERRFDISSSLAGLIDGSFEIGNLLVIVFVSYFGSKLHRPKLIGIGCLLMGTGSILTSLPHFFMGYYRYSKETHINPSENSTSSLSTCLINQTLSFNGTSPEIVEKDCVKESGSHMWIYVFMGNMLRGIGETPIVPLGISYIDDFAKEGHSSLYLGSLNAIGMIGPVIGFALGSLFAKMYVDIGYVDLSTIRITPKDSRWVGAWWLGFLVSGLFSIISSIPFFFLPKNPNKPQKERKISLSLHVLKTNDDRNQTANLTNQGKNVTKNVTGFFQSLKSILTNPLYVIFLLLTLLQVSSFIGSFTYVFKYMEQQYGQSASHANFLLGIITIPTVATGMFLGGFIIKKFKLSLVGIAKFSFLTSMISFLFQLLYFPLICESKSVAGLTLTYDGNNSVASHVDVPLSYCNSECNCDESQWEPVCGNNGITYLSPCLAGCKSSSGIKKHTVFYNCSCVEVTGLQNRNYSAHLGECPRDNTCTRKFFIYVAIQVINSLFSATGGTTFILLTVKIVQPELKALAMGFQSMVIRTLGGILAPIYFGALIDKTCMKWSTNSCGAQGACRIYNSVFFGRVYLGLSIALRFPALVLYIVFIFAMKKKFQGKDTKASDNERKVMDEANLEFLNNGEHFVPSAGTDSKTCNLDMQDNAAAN
Procedure: OATP1B1, OATP1B3, NTCP and vector control cell lines were cultured and subsequent transporter assays conducted as described above using the same transporter‐specific probe substrates and incubation times. For OATP1B1, the probe substrate was [^3H]‐estradiol 17β‐D‐glucuronide (0.02 μM) incubated for 2 min, with rifamycin SV (100 μM) as positive control inhibitor. For IC50 determinations, the only difference to the method performed above was that the 15‐min pre‐incubation step contained a range of six concentrations of protease inhibitor drug, and subsequent incubations were conducted with the same six concentration levels of drug rather than with a single concentration.

NTCP = tested on: NTCP; parameters: method as in Vildhede et al.[33]; conditions: ref Vildhede et al.[33], cited from earlier work
[2] = mean (±SD) of three occasions, read-out: IC50 mean (NTCP)
[3] = single occasion, read-out: IC50, determined values from different occasions (NTCP)
[4] = IC50, determined values from different occasions (OATP1B3), single occasion
[5] = IC50 mean (OATP1B3), mean (±SD) of three occasions

R value (NTCP) (human NTCP (SLC10A1); FDA static equation R = 1 + [Iin max u]/Ki, potential for interaction if ≥1.1) | Mean OATP1B3 IC50 (Ki), fold lower than previously published (human OATP1B3 (SLCO1B3); against value with atorvastatin as probe substrate [33]) | Structure (SMILES) | IC50 (human NTCP (SLC10A1); [2]) | IC50 (human NTCP (SLC10A1); [3]) | Cmax ([1]; clinical dose of Table 5, ref Elsby et al.[1]) | fu fraction unbound [1] | Inhibition of OAT3-mediated [3H]-estrone 3-sulfate transport, single concentration screen (human OAT3 (SLC22A8)) | IC50 (human OATP1B3 (SLCO1B3); [4]) | IC50 (human OATP1B3 (SLCO1B3); [5]) | Inhibition of NTCP, published (NTCP; tested up to 40 μM) | Cmax ([1]; 400 mg, ref Elsby et al.[13]) | Inhibition of NTCP, published (NTCP; tested up to 10 μM)
1.07 | 3.9 fold | COC(=O)N[C@H](C(=O)N[C@@H](Cc1ccccc1)[C@@H](O)CN(Cc1ccc(-c2ccccn2)cc1)NC(=O)[C@@H](NC(=O)OC)C(C)(C)C)C(C)(C)C [atazanavir] | 65.6 µM | 55.9 µM and 63.8 µM and 77.1 µM | 8.68 µM | 0.14 | neither atazanavir, darunavir, lopinavir nor ritonavir inhibited OAT3 transport | 1.75 µM and 2.41 µM and 1.43 µM | 1.86 µM | no inhibition |  | 
 |  | Cc1cccc(C)c1OCC(=O)N[C@@H](Cc1ccccc1)[C@@H](O)C[C@H](Cc1ccccc1)NC(=O)[C@H](C(C)C)N1CCCNC1=O [lopinavir] | 20.3 µM | 22.6 µM and 18.4 µM and 19.9 µM |  | 0.02 | neither atazanavir, darunavir, lopinavir nor ritonavir inhibited OAT3 transport | 5.14 µM and 5.04 µM and 4.95 µM | 5.04 ± 0.095 µM |  | 14.6 µM | no inhibition
